According to patent publication EP0539180A1, “Antiviral agents” (SANWA KAGAKU KENKYUSHO CO., LTD., priority 1991, dated 1993):
Like-named read-outs stand apart in the source and are kept apart here. Marks after values point to notes of the source that are not given here.

Assays:
HSV-1 (Miyama strain) [1] = experiment: In vitro antiviral activity against HSV-1 (CPE inhibition, virus titer reduction) in GMK cells; format: cell-based; details: read-out: Antiviral Activity (ΔTCID50 (log10))
Experimental: The virus titer (TCID₅₀) was determined from CPE of virus infected culture. Antiviral effects of the test compounds were calculated from TCID₅₀ values of the test compounds treated and control cultures and represented by ΔTCID₅₀ (log₁₀).
In this regard, it is noted that prior to be added to the incubation systems, the compounds were dissolved in MEM or ethanol media at 10 mg/ml concentrations, and diluted with MEM media supplemented with 1% fetal bovine serum.

GMK cells = experiment: Cytotoxicity, microscopically observed in GMK cell cultures; format: cell-based, green monkey
HSV-1 (Miyama strain) [2] = experiment: In vivo anti-HSV-1 activities in intraperitoneally infected mice (Testing 5); parameters: species or system BALB/c mice; details: mice infected with 322 PFU HSV-1; for Survival Ratios after 21 days (%): control 0; for Mean Survival Days: control 6.9, *: P<0.05 (U Test)
HSV-1 (Miyama strain) [3] = experiment: In vivo anti-HSV-1 activities in intraperitoneally infected mice (Testing 4); parameters: species or system BALB/c mice; details: mice infected with 322 PFU HSV-1; for Survival Ratios after 21 days (%): control 0; for Mean Survival Days: control 6.9
[4] = Human alphaherpesvirus 1, 10 μg/ml, HSV-1 (Miyama strain), GMK cells
[5] = Human alphaherpesvirus 1, 50 μg/ml, HSV-1 (Miyama strain), GMK cells
[6] = 5 mg/kg intraperitoneally for five days
[7] = 10 mg/kg intraperitoneally for five days
[8] = 20 mg/kg intraperitoneally for five days
[9] = 40 mg/kg intraperitoneally for five days

Work on Clc1cccc(Cl)c1N1CCNCC1 [Compound 12] yielded a log reduction at 10 µg/mL (HSV-1 (Miyama strain) [1]; Human alphaherpesvirus 1, GMK) of 1, a log reduction at 50 µg/mL (HSV-1 (Miyama strain) [1]; Human alphaherpesvirus 1, GMK) of 2.67 and a log reduction at 100 µg/mL (HSV-1 (Miyama strain) [1]; Human alphaherpesvirus 1, GMK) of over 3.3. For the same compound, the cytotoxicities (GMK cells; 100 μg/ml) was “(±)”.

Compound Fc1ccccc1N1CCNCC1 [Compound 5, 1-(o-fluorophenyl)piperazine hydrochlorate] has a log reduction at 10 µg/mL (HSV-1 (Miyama strain) [1]; Human alphaherpesvirus 1, GMK) of 0.33, a log reduction at 50 µg/mL (HSV-1 (Miyama strain) [1]; Human alphaherpesvirus 1, GMK) of 1.33 and a log reduction at 100 µg/mL (HSV-1 (Miyama strain) [1]; Human alphaherpesvirus 1, GMK) of 1.56. For the same compound, the cytotoxicities (GMK cells; 100 μg/ml) was “(+)”.

For CC[C@]12CCCN3CCc4c(n(c5ccccc45)C(=NOCC(O)CN4CCN(c5ccccc5OC)CC4)C1)[C@@H]32 (stereo partly drawn) [Compound 10], the log reduction at 10 µg/mL (HSV-1 (Miyama strain) [1]; [4]) was over 3, the log reduction at 50 µg/mL (HSV-1 (Miyama strain) [1]; [5]) was over 2.17 and the cytotoxicities (GMK cells; 50 μg/ml) was “(±)”. The “Survival Ratios after 21 days (%)” value (HSV-1 (Miyama strain) [2]; [6]) was 50%, the “Mean Survival Days” value (HSV-1 (Miyama strain) [2]; [6]) was 15.4* Days and the “Survival Ratios after 21 days (%)” value (HSV-1 (Miyama strain) [2]; [7]) was 60%. For the same compound, the “Mean Survival Days” value (HSV-1 (Miyama strain) [2]; [7]) was 15.4* Days, the “Survival Ratios after 21 days (%)” value (HSV-1 (Miyama strain) [2]; [8]) was 50% and the “Mean Survival Days” value (HSV-1 (Miyama strain) [2]; [8]) was 16.4* Days. The “Survival Ratios after 21 days (%)” value (HSV-1 (Miyama strain) [2]; [9]) was 50% and the “Mean Survival Days” value (HSV-1 (Miyama strain) [2]; [9]) was 15.5* Days.

Fc1ccc(N2CCNCC2)cc1 [Compound 6, 1-(p-fluorophenyl)piperazine hydrochlorate] gave a log reduction at 10 µg/mL (HSV-1 (Miyama strain) [1]; Human alphaherpesvirus 1, GMK) of 0, a log reduction at 50 µg/mL (HSV-1 (Miyama strain) [1]; Human alphaherpesvirus 1, GMK) of 0.5 and a log reduction at 100 µg/mL (HSV-1 (Miyama strain) [1]; Human alphaherpesvirus 1, GMK) of 1.33. The cytotoxicities (GMK cells; 100 μg/ml) was “(+)”.

For c1ccc(N2CCCCC2)cc1 [Compound 8, 1-phenylpiperidine], the log reduction at 100 µg/mL (HSV-1 (Miyama strain) [1]; Human alphaherpesvirus 1, GMK) was 0.5 and the cytotoxicities (GMK cells; 100 μg/ml) was “(+)”.

COc1ccccc1N1CCN(CCN)CC1 [Compound 9, 4-(aminoethyl)-1-(o-methoxyphenyl)piperazine] was tested, and the log reduction at 10 µg/mL (HSV-1 (Miyama strain) [1]; [4]) was 0.87, the log reduction at 50 µg/mL (HSV-1 (Miyama strain) [1]; [5]) was 1.8 and the log reduction at 100 µg/mL (HSV-1 (Miyama strain) [1]; Human alphaherpesvirus 1, 100 μg/ml, HSV-1 (Miyama strain), GMK cells) was 2.53. The “Survival Ratios after 21 days (%)” value (HSV-1 (Miyama strain) [3]; [6]) was 70%, the “Mean Survival Days” value (HSV-1 (Miyama strain) [3]; [6]) was 17.5* Days and the “Survival Ratios after 21 days (%)” value (HSV-1 (Miyama strain) [3]; [8]) was 50%. For the same compound, the “Mean Survival Days” value (HSV-1 (Miyama strain) [3]; [8]) was 10.9* Days.

With Clc1ccc(N2CCNCC2)cc1 [Compound 3, 1-(p-chlorophenyl)piperazine hydrochlorate] the log reduction at 10 µg/mL (HSV-1 (Miyama strain) [1]; Human alphaherpesvirus 1, GMK) was 0, the log reduction at 50 µg/mL (HSV-1 (Miyama strain) [1]; Human alphaherpesvirus 1, GMK) was 1.5 and the cytotoxicities (GMK cells; 100 μg/ml) was “(±±)”.

For Clc1cccc(N2CCNCC2)c1 [Compound 2, 1-(m-chlorophenyl)piperazine hydrochlorate], the log reduction at 10 µg/mL (HSV-1 (Miyama strain) [1]; Human alphaherpesvirus 1, GMK) was 0.46, the log reduction at 50 µg/mL (HSV-1 (Miyama strain) [1]; Human alphaherpesvirus 1, GMK) was 1.23 and the cytotoxicities (GMK cells; 100 μg/ml) was “(±±)”.

COc1ccccc1N1CCNCC1 [Compound 4, 1-(o-methoxyphenyl)piperazine hydrochlorate] was tested, and the log reduction at 10 µg/mL (HSV-1 (Miyama strain) [1]; Human alphaherpesvirus 1, GMK) was 0.56, the log reduction at 50 µg/mL (HSV-1 (Miyama strain) [1]; Human alphaherpesvirus 1, GMK) was 1.56 and the log reduction at 100 µg/mL (HSV-1 (Miyama strain) [1]; Human alphaherpesvirus 1, GMK) was 2.5. For the same compound, the cytotoxicities (GMK cells; 100 μg/ml) was “(+)”.

c1ccc(N2CCNCC2)cc1 [Compound 7, 1-phenylpiperazine] was tested, and the log reduction at 100 µg/mL (HSV-1 (Miyama strain) [1]; Human alphaherpesvirus 1, GMK) was 0.83 and the cytotoxicities (GMK cells; 100 μg/ml) was “(+)”.

In the case of FC(F)(F)c1ccccc1N1CCNCC1 [Compound 11], the log reduction at 10 µg/mL (HSV-1 (Miyama strain) [1]; Human alphaherpesvirus 1, GMK) was 2, the log reduction at 50 µg/mL (HSV-1 (Miyama strain) [1]; Human alphaherpesvirus 1, GMK) was over 4 and the log reduction at 100 µg/mL (HSV-1 (Miyama strain) [1]; Human alphaherpesvirus 1, GMK) was under 4. For the same compound, the cytotoxicities (GMK cells; 100 μg/ml) was “(±)”.
